Assay results: PubChem BioAssay AID720587 (Broad Institute, 2013)
The source made the active and inactive calls.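 Rule for the calls: active = fitted curve reaches -35% activity change at a concentration below twice the top valid dose tested; inactive = the rest, including effects opposite to the expected direction.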

Experiment: A673 Ewing sarcoma viability loss – cell-based, CellTiter-Glo luminescence, cherry-pick retest, confirmation (AID 720587)
Conditions: A673 Ewing sarcoma viability, CellTiter-Glo ATP luminescence, 72 h; at 8 µM (top of the series)

Row | Structure (SMILES) | activity change, negative = cytotoxicity
1 | COc1ccc(NS(=O)(=O)c2cc(NC(=O)CNC(=O)c3cccc(OC)c3)ccc2C)cc1 | 12.2% (inactive)

Same assay, conditions: A673 Ewing sarcoma viability, CellTiter-Glo ATP luminescence, 72 h; at 23.5 µM (top of the series)

Row | Structure (SMILES) | activity change, negative = cytotoxicity
2 | N#C[C@H]1[C@H](c2ccc(C#Cc3ccccc3F)cc2)[C@@H](CO)N1C(=O)C1CCCCC1 | -7.62% (inactive)
3 | COc1ccccc1NC(=O)N1[C@@H]2CNC[C@H]1[C@@H]2c1ccc(-c2ccc(C#N)cc2)cc1 | 13.3% (inactive)
4 | CCCNC(=O)N1[C@H](C#N)[C@H](c2ccc(C#Cc3cccc(F)c3)cc2)[C@H]1CO | 5% (inactive)
5 | O=S(=O)(c1ccc(F)cc1)N1C[C@H]2[C@@H](c3ccccc31)[C@H](CO)N2Cc1ccccc1Cl | -16.4% (inactive)

Same assay, conditions: A673 Ewing sarcoma viability, CellTiter-Glo ATP luminescence, 72 h; at 26 µM (top of the series)

Row | Structure (SMILES) | activity change, negative = cytotoxicity
6 | COc1cc(/C=N/NS(=O)(=O)c2ccc(C)cc2)ccc1OCc1cccc(C(=O)O)c1 | -3.14% (inactive)
7 | Cc1[nH]c(=S)sc1Cc1ccc(Cl)c(Cl)c1 | 5.33% (inactive)
8 | Cc1ccc(Cl)cc1NC(=O)Cn1cc(C(F)(F)F)cc(Cl)c1=O | 10.1% (inactive)
9 | COc1ccc(C(=O)CN2C(=O)c3ccccc3S2(=O)=O)cc1 | 1.43% (inactive)
10 | COC(=O)Cc1[nH]n(-c2nc3ccccc3s2)c(=O)c1C(C)=Nc1ccc(C)cc1 | -10.7% (inactive)
11 | CC(C)(C)C(=O)Nc1ccc(N=Nc2ccccc2)cc1 | -13.9% (inactive)
12 | CCCc1nc2ccc(NC(=O)c3cccs3)cc2c(=O)n1Cc1ccccc1Cl | 3.49% (inactive)
13 | COC(=O)c1cccc(NC(=O)NC(=O)c2ccccc2Cl)c1 | -9.77% (inactive)
14 | N#Cc1cccc(-c2ccc(C3[C@@H]4CN(C(=O)Cc5ccncc5)C[C@H]3N4)cc2)c1 (some centres not stated) | -0.912% (inactive)
15 | O=C(CCCN1C(=O)/C(=C/c2ccccc2Cl)SC1=S)NNC(=O)c1ccc(Cl)cc1Cl | -0.616% (inactive)
16 | Cc1c(-c2nc(-c3ccc(C(C)(C)C)cc3)no2)n(C)oc1=O | 2.17% (inactive)
17 | COCc1cc(C)nc2sc(C(=O)NCCO)c(-n3cccc3)c12 | 13.2% (inactive)
18 | COc1ccc2oc(-c3ccccc3)cc(=O)c2c1 | -12.3% (inactive)
19 | C[C@@H]1CCCCO[C@@H](CN(C)C(=O)Cc2ccccc2)[C@@H](C)CN([C@@H](C)CO)C(=O)c2cc(NS(=O)(=O)c3ccc(F)cc3)ccc2O1 | 7.89% (inactive)
20 | Cc1ccc(C(=O)CN2C(=O)c3ccccc3S2(=O)=O)cc1 | 11.7% (inactive)
21 | C/C(=N\Nc1cccc2cccnc12)c1ccccn1 | -0.624% (inactive)
22 | CC(C)CN(C(=O)CN1CCOCC1)c1c(N)n(CC(C)C)c(=O)[nH]c1=O | -1.6% (inactive)
23 | CCOC(=O)Cc1csc(NC(=S)NC(=O)c2ccc(C)cc2)n1 | -1.19% (inactive)
24 | O=C1C(=O)N(CCS(=O)(=O)c2ccccc2)c2ccccc21 | 12.4% (inactive)
25 | C/C(=N\OCc1cccc(C(=O)O)c1)c1ccc(Cl)cc1 | -3.02% (inactive)
26 | Cc1noc(C)c1NC(=O)Nc1ccc2c(c1)CC(=O)N([C@H](C)CO)C[C@@H](C)[C@@H](CN(C)Cc1ccc(Cl)c(Cl)c1)O2 | 7.25% (inactive)
27 | CCn1c(C)cc(C(=O)CN2C(=O)c3ccccc3S2(=O)=O)c1C | 9.42% (inactive)
28 | O=C1NC(=O)N(CCc2ccc(F)cc2)C(=O)/C1=C/C=C/c1ccccc1 | 0.109% (inactive)
29 | Cc1ccsc1C(=O)OCC(=O)c1cc(C)n(C)c1C | -0.814% (inactive)
30 | O=C(/C=C/c1ccc(Cl)cc1Cl)N(Cc1ccc(Cl)cc1)C1CCS(=O)(=O)C1 (configuration not stated) | 2.8% (inactive)
31 | CCNC(=O)[C@@H]1[C@@H](CO)[C@@H]2Cn3c(ccc(C4=CCCCC4)c3=O)[C@H]1N2CC | -1.43% (inactive)

Row | Structure (SMILES) | activity change, negative = cytotoxicity
32 | CC(=O)Nc1cc(C(=O)NCc2ccco2)ccc1Sc1ccc(F)cc1 | 8.55% (inactive)
33 | COc1cc(/C=N/NC(=O)c2csc3c2CCCC3)cc(OC)c1O | 0.143% (inactive)
34 | COc1ccc2oc(C(=O)NCCc3ccccc3)c(C)c2c1 | -2.64% (inactive)
35 | COc1ccc(CCC(C)NCC2CCCCC2)cc1 (configuration not stated) | 2.42% (inactive)
36 | O=C(NC(=O)c1ccccc1)Nc1ccccc1 | -3.17% (inactive)
37 | Cc1ccccc1N=Nc1c(O)n(C)c2ccccc12 | -1.37% (inactive)
38 | COc1ccc(S(=O)(=O)N=Nc2c(O)[nH]c3ccccc23)cc1 | 8.74% (inactive)
39 | C=CCn1c(O)c(N=Nc2ccccc2)c2ccccc21 | 7.11% (inactive)
40 | CCOc1ccc(-c2cc(CCCC(=O)NCc3ccc(C)cc3)no2)cc1 | -9.1% (inactive)
41 | Cc1ccc(/C=C2\SC(=S)N(CCC(=O)NNC(=O)c3ccccc3O)C2=O)cc1 | 6.17% (inactive)
42 | O=C(COC(=O)c1ccc[nH]c1=O)Nc1ccc(N2CCCCC2)cc1 | 0.213% (inactive)
43 | CCc1ccc(Cn2ncc3c(C(=O)O)cc(C)nc32)cc1 | 17.3% (inactive)
44 | Nc1ccc2oc(-c3cc(Br)ccc3Cl)nc2c1 | 2.05% (inactive)
45 | O=C1C(=O)N(CCS(=O)(=O)c2ccccc2)c2ccc(Cl)cc21 | -5.89% (inactive)
46 | O=C1CCCC2=C1C(c1ccccn1)Nc1ccc(C(=O)c3ccccc3)cc1N2 (configuration not stated) | 3.59% (inactive)
47 | COc1ccc(CNc2ncc(-c3ccc(F)cc3)n2C)c2ccccc12 | 2.68% (inactive)
48 | CC(C)NC(=O)N(C)C[C@@H]1Oc2cc(C#Cc3ccc(F)cc3)ccc2S(=O)(=O)N([C@H](C)CO)C[C@H]1C | -18.2% (inactive)
49 | CCN1CCN(/C=N/c2nc3c(s2)CCCC3)CC1 | -1.1% (inactive)
50 | Cc1ccc2oc(/N=C(\N)NC(=O)C(C)(C)C)nc2c1 | -3.45% (inactive)
51 | Cc1occc1-c1n[nH]c(=S)n1C | 1.91% (inactive)
52 | Nc1ccc(-c2cc3ccccc3oc2=O)cc1 | 3.89% (inactive)
53 | O=C(Nc1cccc(Oc2ccc3c(c2)C(=O)NC3=O)c1)c1cccs1 | -6.77% (inactive)
54 | CCCc1cc(=O)oc2c3c(c4c(c12)OC(C)(C)C=C4)OC(C)C(C)C3O (configuration not stated) | -3.35% (inactive)
55 | COc1ccc(/C=C2\SC(=O)N(CCCC(=O)Nc3cc(Cl)ccc3C(=O)O)C2=O)cc1 | 1.72% (inactive)
56 | O=C1Nc2ccccc2C1=Nc1ccc(Br)cc1 | -3.12% (inactive)
57 | O=C(C[C@@H]1C[C@H]2c3cc(NC(=O)CC4CC4)ccc3O[C@H]2[C@H](CO)O1)NCc1ccccc1F | -23.9% (inactive)

Row | Structure (SMILES) | activity change, negative = cytotoxicity
58 | CC(=O)c1ccc(NC(=O)c2noc3c2CCC3)cc1 | -3.66% (inactive)
59 | CC(C)(C)c1ccc(/C=N/Nc2ccc(C(=O)O)cc2)cc1 | -3.68% (inactive)
60 | COc1cc(/C=N/NS(=O)(=O)c2ccc3ccccc3c2)ccc1OCc1ccc(C(=O)O)cc1 | 0.172% (inactive)
61 | Cc1cc(C(=O)NNC(=O)c2ccc(S(=O)(=O)N(C)C)cc2)c(C)o1 | 1% (inactive)
62 | CCOc1ccc(/C=C2\CCc3ccccc3C2=O)cc1 | -1.55% (inactive)
63 | C[C@H](CO)N1C[C@H](C)[C@H](CN(C)Cc2ccc(C(F)(F)F)cc2)Oc2c(NS(=O)(=O)c3ccc(Cl)cc3)cccc2C1=O | 4.37% (inactive)
64 | COc1ccccc1NS(=O)(=O)c1cc(NC(=O)c2cc3ccccc3oc2=O)ccc1C | 13% (inactive)
65 | CC(C)(C)c1ccc(Oc2ccc(NC(=O)C3CC=CCC3C(=O)O)cc2)cc1 (configuration not stated) | 6.05% (inactive)
66 | O=C(Nc1nc(-c2ccc(F)c(F)c2)cs1)c1ccc(OCC2CCCO2)cc1 (configuration not stated) | 5.7% (inactive)
67 | COc1cc(OC)cc(-c2cc3nc(C)c(CCC(=O)NCc4ccccc4)c(C)n3n2)c1 | 6.68% (inactive)
68 | Cc1ccccc1N=CC1=C(O)c2ccccc2C1=O | -6.09% (inactive)
69 | C[C@@H]1CN([C@H](C)CO)S(=O)(=O)c2ccc(C#CC3CC3)cc2O[C@@H]1CN(C)Cc1ccccc1F | -19.6% (inactive)
70 | COc1ccc2nc(-c3ccc(F)cc3)sc2c1 | -14.9% (inactive)
71 | CN(C)Cc1c(O)ccc2c1O/C(=C\C=C\c1ccccc1)C2=O | -7.01% (inactive)
72 | CCOC(=O)Cc1ccc(NC(=O)c2ccccc2Br)cc1 | -0.788% (inactive)
73 | Cc1ccsc1/C=N/Nc1ccc(C(=O)O)cc1 | 5.43% (inactive)
74 | O=c1c2ccccc2oc2cc(C#CC3(O)CCCCC3)ccc12 | 6.95% (inactive)
75 | CCc1c(C(=O)NN2C(=O)C3CCCCC3C2=O)csc1C (configuration not stated) | -1.99% (inactive)
76 | C/C(=N\N(c1ccccc1)c1ccccc1)c1ccco1 | -1.2% (inactive)
77 | O=C(O)c1ccc(N/N=C/c2ccc(OC(=O)c3cccc(Cl)c3)cc2)cc1 | -8.45% (inactive)
78 | C(=N\Nc1ccc2ccccc2n1)/c1ccc2c(c1)OCCO2 | -22.2% (inactive)
79 | Cc1cc(C(=O)CN2C(=O)c3ccccc3S2(=O)=O)c(C)n1C(C)C | 21.4% (inactive)
80 | Cc1noc(C)c1NC(=O)Nc1ccc2c(c1)CC(=O)N([C@@H](C)CO)C[C@@H](C)[C@@H](CN(C)Cc1ccc(Cl)c(Cl)c1)O2 | 0.825% (inactive)
81 | CC(=O)c1ccc(N=C2C(=O)Nc3ccccc32)cc1 | -4.29% (inactive)
82 | COc1ccc(/C=C2/SC(=S)N(CCCC(=O)Nc3ccccc3C(=O)O)C2=O)cc1 | 5.45% (inactive)
